From patent publication US10588935B2, “FC receptor (FcRn) binding peptides and uses thereof” (THE BRIGHAM AND WOMEN'S HOSPITAL, INC., priority 2013, dated 2020)
“And” between values parts separate entries of the source, which are not always exact repeats. Identical values can stand only once. Like-named read-outs stand apart in the source and are kept apart here. Each block holds one molecule with its values, some of them ahead of it. Bridge positions count the residues as written; N and C are the ends. Peptide text beside a SMILES is read from it.

Biological target: T1, soluble human FcRn (Homo sapiens, UniProt P55899)
T1 construct: Soluble human FcRn was expressed and purified by Biogen-Idec as previously described (29)
Experiment: SPR (Biacore) affinity of peptides for immobilized soluble human FcRn
Format: binding
Experimental: SPR analyses were conducted using a Biacore 3000 or T100 instrument. Research-grade CM5 sensor chips and all coupling reagents for immobilization were purchased from Biacore. All proteins were cross-linked to the dextran surface of a CM5 sensor chip by standard amine coupling chemistry as recommended by Biacore. […] Binding experiments were performed at pH 6.0 or 7.4 using 50 mM phosphate, 100 mM sodium chloride and 0.01% surfactant P20. […] Bound albumin protein was then allowed to dissociate from the chip for 5 minutes with running buffer. Any remaining albumin was removed from the chip with a 60 second injection (2 cycles) of pH 8.0 Tris-HCl regeneration buffer (1 M Tris pH 8.0) at 25 μL/min flow rate. The binding responses recorded near the end of the association phase were plotted as a function of concentration. Equilibrium dissociation constants (KD), were derived from sensorgrams using the 1:1 binding model of BIAevaluation software 4.1.

[1] = Table 1, pH 6, shFcRn immobilized on the sensor chip, steady state fit, read-out: Kd, pH 6** Biacore
[2] = Table 2, pH 6, immobilized shFcRn, data fit steady state or 2 site, read-out: Kd, pH 6** Biacore
[3] = Table 2, pH 7.4, data only 100 uM, therefore Kd may be higher, read-out: Kd, pH 7.4 Biacore

Structure (SMILES): CC(=O)N[C@@H](CCCNC(=N)N)C(=O)N[C@@H](Cc1ccc(O)cc1)C(=O)N[C@@H](Cc1ccccc1)C(=O)N[C@@H](C)C(=O)N[C@H](C(=O)N[C@@H](CCCCN)C(=O)N[C@@H](Cc1c[nH]c2ccccc12)C(=O)N[C@@H](CCCCN)C(=O)N[C@@H](Cc1c[nH]cn1)C(=O)NCC(=O)N[C@@H](Cc1c[nH]c2ccccc12)C(=O)N[C@@H](C)C(=O)N[C@@H](CCC(=O)O)C(=O)N[C@@H](CCC(=O)O)C(=O)N[C@H](C(N)=O)C(C)C)[C@@H](C)O [SYN1558] (Ac-RYFATKWKHGWAEEV-NH2)
Kd [1]: > 100 µM

Structure (SMILES): CSCC[C@H](NC(=O)[C@@H](NC(C)=O)C(C)C)C(=O)N[C@@H](Cc1c[nH]cn1)C(=O)N[C@H]1CSSC[C@@H](C(=O)N[C@@H](CC(=O)O)C(=O)N[C@@H](CCC(N)=O)C(=O)NCC(N)=O)NC(=O)[C@H](CCCCN)NC(=O)[C@H](Cc2ccccc2)NC(=O)[C@H](C)NC(=O)[C@H](CCC(=O)O)NC(=O)[C@H](CC(=O)O)NC(=O)[C@H](Cc2c[nH]c3ccccc23)NC(=O)[C@H](Cc2ccccc2)NC1=O [SYN1216] (Ac-VMHCFWDEAFKCDQG-NH2; disulfide 4-12 (inferred))
Kd Ratio 7.4/6.0 (Table 2): 52

Structure (SMILES): CSCC[C@H](NC(=O)[C@H](Cc1ccc(O)cc1)NC(C)=O)C(=O)N[C@H](C(=O)N[C@H]1CSSC[C@@H](C(=O)N[C@@H](C)C(=O)N[C@@H](Cc2ccc(O)cc2)C(=O)N[C@H](C(N)=O)C(C)C)NC(=O)[C@H](CO)NC(=O)[C@H](Cc2ccccc2)NC(=O)CNC(=O)[C@H](CC(=O)O)NC(=O)[C@H](CC(=O)O)NC(=O)[C@H](Cc2c[nH]c3ccccc23)NC(=O)[C@H](CCCCN)NC1=O)[C@@H](C)O [SYN1154] (Ac-YMTCKWDDGFSCAYV-NH2; disulfide 4-12 (inferred))
Kd Ratio 7.4/6.0 (Table 2): 20 | Kd [2]: 1.5 µM and 0.46 µM

Structure (SMILES): CC(=O)N[C@@H](CCCNC(=N)N)C(=O)N[C@@H](Cc1ccc(O)cc1)C(=O)N[C@@H](Cc1ccccc1)C(=O)N[C@H]1CSSC[C@@H](C(=O)N[C@@H](CCC(=O)O)C(=O)N[C@@H](CCC(=O)O)C(=O)N[C@@H](C)C(N)=O)NC(=O)[C@H](Cc2c[nH]c3ccccc23)NC(=O)CNC(=O)[C@H](Cc2c[nH]cn2)NC(=O)[C@H](CCCCN)NC(=O)[C@H](Cc2c[nH]c3ccccc23)NC(=O)[C@H](CCCCN)NC(=O)[C@H]([C@@H](C)O)NC1=O [SYN1554] (Ac-RYFCTKWKHGWCEEA-NH2; disulfide 4-12)
Kd [1]: > 100 µM

Structure (SMILES): CSCC[C@H](NC(=O)[C@@H](NC(C)=O)C(C)C)C(=O)N[C@@H](Cc1c[nH]cn1)C(=O)N[C@H]1CSSC[C@@H](C(=O)N[C@@H](CC(=O)O)C(=O)N[C@@H](CCC(N)=O)C(=O)NCC(N)=O)NC(=O)[C@H](CCCCN)NC(=O)[C@H](Cc2ccccc2)NC(=O)[C@H](CCC(=O)O)NC(=O)[C@H](CCC(=O)O)NC(=O)[C@H](CC(=O)O)NC(=O)[C@H](Cc2c[nH]c3ccccc23)NC(=O)[C@H](C)NC1=O [SYN1217] (Ac-VMHCAWDEEFKCDQG-NH2; disulfide 4-12)
Kd [2]: > 20 µM | Kd, pH 7.4 Biacore (Table 2, pH 7.4, data only 100 uM, therefore Kd may be higher): no bind

Structure (SMILES): CSCC[C@H](NC(=O)[C@H](Cc1ccc(O)cc1)NC(C)=O)C(=O)N[C@H](C(=O)N[C@H]1CSSC[C@@H](C(=O)N[C@@H](CCC(=O)O)C(=O)N[C@@H](Cc2ccc(O)cc2)C(=O)N[C@H](C(N)=O)C(C)C)NC(=O)[C@H](CO)NC(=O)[C@H](Cc2ccccc2)NC(=O)CNC(=O)[C@H](C)NC(=O)[C@H](CC(=O)O)NC(=O)[C@H](Cc2c[nH]c3ccccc23)NC(=O)[C@H](CCCCN)NC1=O)[C@@H](C)O [SYN1150] (Ac-YMTCKWDAGFSCEYV-NH2; disulfide 4-12 (inferred))
Kd Ratio 7.4/6.0 (Table 2): 2.2

Structure (SMILES): CSCC[C@H](NC(=O)[C@H](Cc1ccc(O)cc1)NC(C)=O)C(=O)N[C@H](C(=O)N[C@H]1CSSC[C@@H](C(=O)N[C@@H](CCC(=O)O)C(=O)N[C@@H](C)C(=O)N[C@H](C(N)=O)C(C)C)NC(=O)[C@H](CO)NC(=O)[C@H](Cc2ccccc2)NC(=O)CNC(=O)[C@H](CC(=O)O)NC(=O)[C@H](CC(=O)O)NC(=O)[C@H](Cc2c[nH]c3ccccc23)NC(=O)[C@H](CCCCN)NC1=O)[C@@H](C)O [SYN1155] (Ac-YMTCKWDDGFSCEAV-NH2; disulfide 4-12 (inferred))
Kd Ratio 7.4/6.0 (Table 2): 9.8 | Kd [3]: 17.3 µM

Structure (SMILES): CSCC[C@H](NC(=O)[C@H](Cc1ccc(O)cc1)NC(C)=O)C(=O)N[C@H](C(=O)N[C@H]1CSSC[C@@H](C(=O)N[C@@H](CCC(=O)O)C(=O)N[C@@H](Cc2ccc(O)cc2)C(=O)N[C@H](C(N)=O)C(C)C)NC(=O)[C@H](CO)NC(=O)[C@H](Cc2ccccc2)NC(=O)CNC(=O)[C@H](CC(=O)O)NC(=O)[C@H](C)NC(=O)[C@H](Cc2c[nH]c3ccccc23)NC(=O)[C@H](CCCCN)NC1=O)[C@@H](C)O [SYN1149] (Ac-YMTCKWADGFSCEYV-NH2; disulfide 4-12 (inferred))
Kd Ratio 7.4/6.0 (Table 2): 7.8 | Kd [3]: 12 µM

Further lines, results first:

Kd Ratio 7.4/6.0 (Table 2): 25
Structure (SMILES): CSCC[C@H](NC(=O)[C@@H](NC(C)=O)C(C)C)C(=O)N[C@@H](Cc1c[nH]cn1)C(=O)N[C@H]1CSSC[C@@H](C(=O)N[C@@H](CC(=O)O)C(=O)N[C@@H](CCC(N)=O)C(=O)NCC(N)=O)NC(=O)[C@H](CCCNC(=N)N)NC(=O)[C@H](Cc2ccccc2)NC(=O)[C@H](C)NC(=O)[C@H](CCC(=O)O)NC(=O)[C@H](CC(=O)O)NC(=O)[C@H](Cc2c[nH]c3ccccc23)NC(=O)[C@H](Cc2ccccc2)NC1=O [SYN1382] (Ac-VMHCFWDEAFRCDQG-NH2; disulfide 4-12 (inferred))

Kd Ratio 7.4/6.0 (Table 2): 84
Structure (SMILES): CSCC[C@H](NC(=O)[C@@H](NC(C)=O)C(C)C)C(=O)N[C@@H](Cc1c[nH]cn1)C(=O)N[C@H]1CSSC[C@@H](C(=O)N[C@@H](CC(=O)O)C(=O)N[C@@H](CCC(N)=O)C(=O)NCC(N)=O)NC(=O)[C@H](CCCCN)NC(=O)[C@H](Cc2ccccc2)NC(=O)[C@H](CCC(=O)O)NC(=O)[C@H](CCC(=O)O)NC(=O)[C@H](CC(=O)O)NC(=O)[C@H](Cc2c[nH]c3ccccc23)NC(=O)[C@H](Cc2ccccc2)NC1=O [SYN1197] (Ac-VMHCFWDEEFKCDQG-NH2; disulfide 4-12 (inferred))

Kd Ratio 7.4/6.0 (Table 2): 35
Structure (SMILES): CSCC[C@@H]1NC(=O)[C@H](CCC(=O)O)NC(=O)[C@H](CCC(=O)O)NC(=O)[C@H](CC(=O)O)NC(=O)[C@H](Cc2c[nH]c3ccccc23)NC(=O)[C@H](Cc2ccccc2)NC(=O)[C@@H](NC(=O)[C@H](CCCCN)NC(=O)[C@H](CCSC)NC(=O)[C@@H](NC(C)=O)C(C)C)CSSC[C@@H](C(=O)N[C@@H](CCCNC(=N)N)C(=O)N[C@@H](C)C(=O)N[C@@H](Cc2ccccc2)C(N)=O)NC(=O)[C@H](CC(C)C)NC1=O [SYN1535] (Ac-VMKCFWDEEMLCRAF-NH2; disulfide 4-12 (inferred))

Kd Ratio 7.4/6.0 (Table 2): 125
Structure (SMILES): CSCC[C@@H]1NC(=O)[C@H](CCC(=O)O)NC(=O)[C@H](CCC(=O)O)NC(=O)[C@H](CC(=O)O)NC(=O)[C@H](Cc2c[nH]c3ccccc23)NC(=O)[C@H](Cc2c[nH]c3ccccc23)NC(=O)[C@@H](NC(=O)[C@H](CCCNC(=N)N)NC(=O)[C@H](CCSC)NC(=O)[C@@H](NC(C)=O)C(C)C)CSSC[C@@H](C(=O)N[C@@H](CCCNC(=N)N)C(=O)N[C@@H](C)C(=O)N[C@@H](Cc2ccccc2)C(N)=O)NC(=O)[C@H](CC(C)C)NC1=O [SYN1534] (Ac-VMRCWWDEEMLCRAF-NH2; disulfide 4-12 (inferred))

Kd Ratio 7.4/6.0 (Table 2): 82
Structure (SMILES): CSCC[C@H](NC(=O)[C@@H](NC(C)=O)C(C)C)C(=O)N[C@@H](Cc1c[nH]cn1)C(=O)N[C@H]1CSSC[C@@H](C(=O)N[C@@H](CC(=O)O)C(=O)N[C@@H](Cc2ccc(O)cc2)C(=O)NCC(N)=O)NC(=O)[C@H](CCCNC(=N)N)NC(=O)[C@H](Cc2ccccc2)NC(=O)[C@H](CCC(=O)O)NC(=O)[C@H](CCC(=O)O)NC(=O)[C@H](CC(=O)O)NC(=O)[C@H](Cc2c[nH]c3ccccc23)NC(=O)[C@H](Cc2ccccc2)NC1=O [SYN1381] (Ac-VMHCFWDEEFRCDYG-NH2; disulfide 4-12 (inferred))

Kd Ratio 7.4/6.0 (Table 2): 83 | Kd [3]: 8.6 µM
Structure (SMILES): CSCC[C@@H]1NC(=O)[C@H](CCC(=O)O)NC(=O)[C@H](CCC(=O)O)NC(=O)[C@H](CC(=O)O)NC(=O)[C@H](Cc2c[nH]c3ccccc23)NC(=O)[C@H](Cc2c[nH]c3ccccc23)NC(=O)[C@@H](NC(=O)[C@H](CCCCN)NC(=O)[C@H](CCSC)NC(=O)[C@@H](NC(C)=O)C(C)C)CSSC[C@@H](C(=O)N[C@@H](CCCNC(=N)N)C(=O)N[C@@H](Cc2ccc(O)cc2)C(=O)N[C@@H](Cc2ccccc2)C(N)=O)NC(=O)[C@H](CC(C)C)NC1=O [SYN1539] (Ac-VMKCWWDEEMLCRYF-NH2; disulfide 4-12 (inferred))

Kd Ratio 7.4/6.0 (Table 2): 99 | Kd [2]: 0.45 µM and 0.3 µM
Structure (SMILES): CSCC[C@@H]1NC(=O)[C@H](CCC(=O)O)NC(=O)[C@H](CCC(=O)O)NC(=O)[C@H](CC(=O)O)NC(=O)[C@H](Cc2c[nH]c3ccccc23)NC(=O)[C@H](Cc2c[nH]c3ccccc23)NC(=O)[C@@H](NC(=O)[C@H](CCCCN)NC(=O)[C@H](CCSC)NC(=O)[C@@H](NC(=O)CNC(=O)[C@H](C)NC(C)=O)C(C)C)CSSC[C@@H](C(=O)N[C@@H](CCCNC(=N)N)C(=O)N[C@@H](C)C(=O)N[C@@H](Cc2ccccc2)C(=O)NCC(=O)N[C@H](C(=O)NCC(=O)NCC(=O)NCC(=O)N[C@@H](CCCCN)C(N)=O)[C@@H](C)O)NC(=O)[C@H](CC(C)C)NC1=O [SYN531] (Ac-AGVMKCWWDEEMLCRAFGTGGGK-NH2; disulfide 6-14 (inferred))
